Here are results for 17 molecules from patent US10435361B2, “Kinase inhibitors” (Topivert Pharma Limited, priority 2013, dated 2019).

Holding throughout (format): cell-based
Assay [1] relates to PBMCs. The assay is described as follows: LPS-induced TNFα/IL-8 release in PBMC cells. Conditions: Homo sapiens, assay (b), read-out: IC50 Values for Inhibition of Cytokine Release PBMCs IL-8. The protocol: Peripheral blood mononuclear cells (PBMCs) from healthy subjects are separated from whole blood using a density gradient (Lymphoprep, Axis-Shield Healthcare). The PBMCs are seeded in 96 well plates and treated with compounds at the desired concentration for 2 hours before addition of 1 ng/mL LPS (Escherichia Coli 0111:B4 from Sigma Aldrich) for 24 hours under normal tissue culture conditions (37° C., 5% CO2). The supernatant is harvested for determination of IL-8 and TNFα concentrations by sandwich ELISA (Duo-set, R&D systems) and read on the fluorescence microplate reader (Varioskan® Flash, ThermoFisher Scientific).

Assay [2] deals with PBMCs. The assay is described as follows: IL-2 and IFN gamma release in CD3/CD28 stimulated PBMC cells. Conditions: Homo sapiens, assay (c). On the procedure:
PBMCs from healthy subjects are separated from whole blood using a density gradient (Lymphoprep, Axis-Shield Healthcare). Cells are added to a 96 well plate pre-coated with a mixture of CD3/CD28 monoclonal antibodies (0.3 μg/mL eBioscience and 3 μg/mL BD Pharmingen respectively). Compound at the desired concentration is then added to the wells and the plate left for 3 days under normal tissue culture conditions. […] The IC50 is determined from the dose response curve.

Assay [3] has as its system PBMCs. As to the kind of experiment: Cell mitosis assay in PBMCs. Particulars: Homo sapiens, PBMC, 5 μg/mL. On the procedure:
Peripheral blood mononucleocytes (PBMCs) from healthy subjects are separated from whole blood (Quintiles, London, UK) using a density gradient (Histopaque®-1077, Sigma-Aldrich, Poole, UK). The PBMCs (3 million cells per sample) are subsequently treated with 2% PHA (phytohaemagglutinin, Sigma-Aldrich, Poole, UK) for 48 hr, followed by a 20 hr exposure to varying concentrations of test compounds. At 2 hr before collection, PBMCs are treated with demecolcine (0.1 μg/mL; Invitrogen, Paisley, UK) to arrest cells in metaphase. To observe mitotic cells, PBMCs are permeabilised and fixed by adding Intraprep (50 μL; Beckman Coulter, France), and stained with anti-phospho-histone 3 (0.26 ng/L; #9701; Cell Signalling, Danvers, Mass.) and propidium iodide (1 mg/mL; Sigma-Aldrich, Poole, UK) as previously described (Muehlbauer P. A. and Schuler M. J., Mutation Research, 2003, 537:117-130). Fluorescence is observed using an ATTUNE flow cytometer (Invitrogen, Paisley, UK), gating for lymphocytes.

Setting [4] is: read-out: IC50 Values for Inhibition of Cytokine Release PBMCs IL-2.
Setting [5] is: read-out: IC50 Values for Inhibition of Cytokine Release PBMCs IFNγ.

One may read the IC50 as the concentration that inhibits the measured activity by half. Turning to `COCCOCCOCCOc1cc(Nc2nccc(Oc3ccc(NC(=O)Nc4cc(C(C)(C)C)cc(NS(=O)(=O)N5CCOCC5)c4OC)c4ccccc34)n2)cc(OC)c1` [83(b), N-(5-(tert-butyl)-2-methoxy-3-(3-(4-((2-((3-methoxy-5-(2-(2-(2-methoxyethoxy)ethoxy)-ethoxy)phenyl)amino)pyrimidin-4-yl)oxy)naphthalen-1-yl)ureido)phenyl)morpholine-4-sulfonamide], the results for the IC50 in assay [1] and in assay [2] (setting [4]) were 3.7 nM and 109 nM, respectively.

By inhibition is commonly meant the drop in the measured response relative to a control, in per cent. Lower therefore signals a weak effect. As for `COCCOCCOCCOc1cc(Nc2nccc(Oc3ccc(NC(=O)Nc4cc(C(C)(C)C)cc(C(=O)NCC(=O)OC)c4OC)c4ccccc34)n2)cc(OC)c1` [Example 37, Methyl 2-(5-(tert-butyl)-2-methoxy-3-(3-(4-((2-((3-methoxy-5-(2-(2-(2-methoxyethoxy)-ethoxy)ethoxy)phenyl)amino)pyrimidin-4-yl)oxy)naphthalen-1-yl)ureido)benzamido)-acetate], the IC50 in assay [1] was 2.2 nM. This molecule also yielded an inhibition at 5 µg/mL in assay [3] of 45.9%. For `COCCOCCNC(=O)c1cc(Nc2cc(Oc3ccc(NC(=O)Nc4cc(C(C)(C)C)cc(NS(C)(=O)=O)c4OC)c4ccccc34)ccn2)cc(OC)c1` [85(u), 3-[[4-[[4-[[5-tert-Butyl-3-(methanesulfonamido)-2-methoxyphenyl]-carbamoylamino]-1-naphthyl]oxy]-2-pyridyl]amino]-5-methoxy-N-[2-(2-methoxyethoxy)-ethyl]benzamide] the same measures were 1.4 nM and 38.4%. Take `C#Cc1cc(Nc2cc(Oc3ccc(NC(=O)Nc4cc(C(N)=O)cc(C(C)(C)C)c4)c4ccccc34)ccn2)cc(C(=O)NCCOCCOCCOC)c1` [Example 62, 3-((4-((4-(3-(3-(tert-Butyl)-5-carbamoylphenyl)ureido)naphthalen-1-yl)oxy)pyridin-2-yl)amino)-5-ethynyl-N-(2-(2-(2-methoxyethoxy)ethoxy)ethyl)benzamide]: the IC50 in assay [1] is 4.6 nM; in assay [2] (setting [5]) it was 32.2 nM; in assay [2] (setting [4]), 48.7 nM. Consider `COc1cc(Nc2cc(Oc3ccc(NC(=O)Nc4cc(C(C)(C)C)cc(NS(C)(=O)=O)c4OC)c4ccccc34)ccn2)cc(C(=O)NCCN2CCOC(C)(C)C2)c1` [85(m), 3-[[4-[[4-[[5-tert-Butyl-3-(methanesulfonamido)-2-methoxyphenyl]-carbamoylamino]-1-naphthyl]oxy]-2-pyridyl]amino]-N-[2-(2,2-dimethylmorpholin-4-yl)ethyl]-5-methoxybenzamide], for which the IC50 in assay [1] was determined as 1.8 nM. Also, the inhibition at 5 µg/mL in assay [3] worked out at 26.4%. Turning to `C#Cc1cc(Nc2cc(Oc3ccc(NC(=O)Nc4cc(C(C)(C)C)cc(NS(C)(=O)=O)c4OC)c4ccccc34)ccn2)cc(C(=O)N[C@H](C)COCCOCCOC)c1` [Example 68, (R)-3-((4-((4-(3-(5-(tert-Butyl)-2-methoxy-3-(methylsulfonamido)phenyl)ureido)-naphthalen-1-yl)oxy)pyridin-2-yl)amino)-5-ethynyl-N-(1-(2-(2-methoxyethoxy)ethoxy)-propan-2-yl)benzamide], the IC50 came to 2.8 nM in assay [1], 68.8 nM in assay [2] (setting [5]) and 220 nM in assay [2] (setting [4]).

For `COCCOCCOCCS(=O)(=O)c1cc(Nc2cc(Oc3ccc(NC(=O)Nc4cc(C(C)(C)C)cc(NS(C)(=O)=O)c4OC)c4ccccc34)ccn2)cc(OC)c1` [Example 85(y), 1-[5-tert-Butyl-3-(methanesulfonamido)-2-methoxyphenyl]-3-[4-[2-[3-methoxy-5-[2-[2-(2-methoxyethoxy)ethoxy]ethylsulfonyl]anilino]pyridin-4-yl]oxy-1-naphthyl]urea], in assay [1], the IC50 was determined as 1.7 nM. 5 µg/mL produced 20.1% inhibition in assay [3]. In the same order, the values of `COc1cc(Nc2cc(Oc3ccc(NC(=O)Nc4cc(C(C)(C)C)cc(NS(C)(=O)=O)c4OC)c4ccccc34)ccn2)cc(C(=O)NCCN2C[C@@H](C)O[C@@H](C)C2)c1` [85(n), 3-[[4-[[4-[[5-tert-Butyl-3-(methanesulfonamido)-2-methoxyphenyl]-carbamoylamino]-1-naphthyl]oxy]-2-pyridyl]amino]-N-[2-[(2R,6S)-2,6-dimethylmorpholin-4-yl]ethyl]-5-methoxybenzamide] are 1.9 nM and 26.6%. As for `CCOc1c(NC(=O)Nc2ccc(Oc3ccnc(Nc4cc(OC)cc(OCCOCCOCCOC)c4)n3)c3ccccc23)cc(C(C)(C)C)cc1NS(C)(=O)=O` [Example 69, N-(5-(tert-butyl)-2-ethoxy-3-(3-(4-((2-((3-methoxy-5-(2-(2-(2-methoxyethoxy)ethoxy)-ethoxy)phenyl)amino)pyrimidin-4-yl)oxy)naphthalen-1-yl)ureido)phenyl)methane-sulfonamide], the IC50 was determined as 1.6 nM in assay [1] and 2.2 nM in assay [2] (setting [5]).

Take `COc1cc(Nc2nccc(Oc3ccc(NC(=O)Nc4cc(C(C)(C)C)cc(NS(C)(=O)=O)c4OC)c4ccccc34)n2)cc(OCCOCCOCCO)c1` [83(c), N-(5-(tert-butyl)-3-(3-(4-((2-((3-(2-(2-(2-hydroxyethoxy)ethoxy)ethoxy)-5-methoxyphenyl)-amino)pyrimidin-4-yl)oxy)naphthalen-1-yl)ureido)-2-methoxyphenyl)methanesulfonamide]: the IC50 in assay [1] is 1.8 nM. Further, the inhibition at 5 µg/mL in assay [3] came out at 57.1%. As for `COCCOCCOCCOc1cc(Nc2cc(Oc3ccc(NC(=O)Nc4cc(C(C)(C)C)cc(C(=O)NCCN(C)C)c4OC)c4ccccc34)ccn2)cc(OC)c1` [Example 76, 5-(tert-Butyl)-N-(2-(dimethylamino)ethyl)-2-methoxy-3-(3-(4-((2-((3-methoxy-5-(2-(2-(2-methoxyethoxy)ethoxy)ethoxy)phenyl)amino)pyridin-4-yl)oxy)naphthalen-1-yl)ureido)-benzamide], in assay [1], the IC50 was found to be 1.9 nM. For the same molecule, at 5 µg/mL the inhibition in assay [3] was 91.3%.

For `COCCOCCOCCOc1cc(Nc2nccc(Oc3ccc(NC(=O)Nc4cc(C(C)(C)C)cc(N)c4OC)c4ccccc34)n2)cc(OC)c1` [Example 25, 1-(3-Amino-5-(tert-butyl)-2-methoxyphenyl)-3-(4-((2-((3-methoxy-5-(2-(2-(2-methoxy-ethoxy)ethoxy)ethoxy)phenyl)amino)pyrimidin-4-yl)oxy)naphthalen-1-yl)urea], the IC50 in assay [1] worked out at 7 nM. As to `COc1cc(Nc2nccc(Oc3ccc(NC(=O)Nc4cc(C(C)(C)C)cc(NS(C)(=O)=O)c4OC)c4ccccc34)n2)cc(OCCOCCOCCN2CCOCC2)c1` [Example 18, N-(5-(tert-Butyl)-2-methoxy-3-(3-(4-((2-((3-methoxy-5-(2-(2-(2-morpholinoethoxy)ethoxy)-ethoxy)phenyl)amino)pyrimidin-4-yl)oxy)naphthalen-1-yl)ureido)phenyl)methanesulfonamide], in assay [1], the IC50 amounted to 1 nM. In assay [3], this molecule had an inhibition at 5 µg/mL of 92.7%. For `COCCOCCOCC[S+]([O-])c1cc(Nc2cc(Oc3ccc(NC(=O)Nc4cc(C(C)(C)C)cc(NS(C)(=O)=O)c4OC)c4ccccc34)ccn2)cc(OC)c1` (centres unmarked) [85(x), 1-[5-tert-Butyl-3-(methanesulfonamido)-2-methoxyphenyl]-3-[4-[2-[3-methoxy-5-[2-[2-(2-methoxyethoxy)ethoxy]ethylsulfinyl]anilino]pyridin-4-yl]oxy-1-naphthyl]urea], the IC50 in assay [1] was 0.9 nM. With `COCCOCCOCCOc1cc(Nc2nccc(Oc3ccc(NC(=O)Nc4cc(C(C)(C)C)ccc4OC)c4ccccc34)n2)cc(OC)c1` [Example 8, 1-(5-(tert-Butyl)-2-methoxyphenyl)-3-(4-((2-((3-methoxy-5-(2-(2-(2-methoxyethoxy)ethoxy)-ethoxy)phenyl)amino)pyrimidin-4-yl)oxy)naphthalen-1-yl)urea], the IC50 in assay [1] stood at 28.1 nM. Turning to `COc1cc(Nc2nccc(Oc3ccc(NC(=O)Nc4cc(C(C)(C)C)cc(NS(C)(=O)=O)c4OC)c4ccccc34)n2)cc(OCCOCCOCCN(C)C)c1` [Example 15, N-(5-(tert-Butyl)-3-(3-(4-((2-((3-(2-(2-(2-(dimethylamino)ethoxy)ethoxy)ethoxy)-5-methoxyphenyl)amino)pyrimidin-4-yl)oxy)naphthalen-1-yl)ureido)-2-methoxyphenyl)-methanesulfonamide], the IC50 in assay [1] was 0.9 nM. Also, 5 µg/mL produced 97.5% inhibition in assay [3]. Turning to `COCCOCCOCCNC(=O)c1cc(Nc2nccc(Oc3ccc(NC(=O)Nc4cc(C(C)(C)C)cc(NS(C)(=O)=O)c4OC)c4ccccc34)n2)cc(OC)c1` [Example 7, 3-((4-((4-(3-(5-(tert-Butyl)-2-methoxy-3-(methylsulfonamido)phenyl)ureido)naphthalen-1-yl)oxy)pyrimidin-2-yl)amino)-5-methoxy-N-(2-(2-(2-methoxyethoxy)ethoxy)ethyl)-benzamide], the IC50 in assay [1] was determined as 1.1 nM.
